Test results: patent publication US4071528A, “Certain thiazolidine and tetrahydrothiazine compounds” (May & Baker Limited, priority 1975, dated 1978)
Where two headings read alike, the source gives them in different places.

Key:
[1] = Oral acute toxicity (LD50) in mice; details: mouse, in vivo, observed during next 6 days
Description: Mice were each treated orally with one of the compounds of formula I, and they were observed during the next 6 days. The LD50 figures obtained (doses lethal to 50% of mice tested) are shown in Table VII, expressed in mg/kg animal body weight.

[2] = test system: Nippostrongylus brasiliensis; assay: Activity against roundworms in rats, A.2: treatment 24 hours after infection, post-mortem worm counts; type: in vivo; details: 144 h, treated 24 hours after infection, read-out: % Reduction of mean worm load
Protocol: In the Tables of results "s.c." means subcutaneous and the doses are expressed in mg/kg animal body weight. […] A.2. Rats were infected with 100 Nippostrongylus brasiliensis larvae each, by the subcutaneous route. After 24 hours the rats were randomised and allotted to groups of 5 animals each, ready for treatment. Doses of the test compound were then administered to each group by the oral or subcutaneous route, one group of 10 animals being left untreated as a control. All the rats were killed for post-mortem worm counts 6 days after dosing. The activities, expressed in terms of the percentage reduction in mean worm load of the treated groups compared with the untreated control group, are given below in Table II.

Mycosphaerella pinodes = assay: Minimum effective concentration totally inhibiting fungal growth, Mycosphaerella pinodes, potato dextrose agar tubes; type: cell-based; details: Didymella pinodes, 48 h; total inhibition of fungal growth; tested at 50, 10 or 2 ppm; 25° C, 2 days
Protocol: Test tubes containing 4.0 ml of molten potato dextrose agar at about 50° C were inoculated with 0.5 ml of suspension of test compound and 0.5 ml of fungal suspension delivered from a sterile syringe to give a final concentration of each compound of 50, 10 or 2 ppm. Two replicate tubes were inoculated with each fungal species. After the addition of test compounds and fungal inoculum to the molten medium the tubes were sloped and the agar was allowed to set. The tubes were incubated at 25° C for either 2 days (Mycosphaerella pinodes) or 3 days (Helminthosporium avenae). […] The suspensions of test compounds were prepared by grinding 0.025 g of test compound with sterile distilled water containing 0.1 ml of 0.1% Texofor FX170 wetting agent, followed by dilution to the concentration desired. The inoculum of Mycosphaerella pinodes was prepared as follows: A one to two week old culture on Coon's agar on plates was scraped off with a glass rod and sterile distilled water and filtered through muslin. The filtrate, containing the spores, was used for inoculation.

Ostertagia circumcincta = assay: B.2 Activity against Ostertagia circumcincta in 4th larval and adult stages in lambs; type: in vivo; details: oral 4 mg/kg
Protocol: (§1) B.2. Activity against Haemonchus contortus, Ostertagia circumcincta, Trichostrongylus axei, Trichostrongylus colubriformis and Nematodirus spathiger in their 4th larval and adult stages in lambs.
(§2) Worm-free, 8-10 week old lambs were each infected with 5,000 H. contortus, 15,000 O. circumcincta, 20,000 T. axei, 15,000 T. colubriformis and 15,000 N. spathiger larvae.
(§3) Doses of test compound A of 4 mg/kg animal body weight were then administered to each group of 2 animals, by the oral route, after 7 days or 25 days to examine the effects against the 4th larval stage and mature adult worms respectively, one group of 2 animals being left untreated as a control. All the lambs were killed for post-mortem worm wounts 28 days after infection. The activities, expressed in terms of the percentage reduction in mean worm burden of each worm species compared with the untreated control group, are given below in Table III.

Trichostrongylus axei = assay: B.2 Activity against Trichostrongylus axei in 4th larval and adult stages in lambs; type: in vivo; details: oral 4 mg/kg
Protocol: as §1, §2, §3

Haemonchus contortus [3] = assay: B.1 Activity against adult Haemonchus contortus in lambs; type: in vivo; details: s.c. 10 mg/kg (methanesulphonate salt), adult stage
Protocol: (§4) B.1. Activity against Haemonchus contortus and Nematodirus spathiger in their adult stages in lambs.
(§5) Worm-free, 8-10 week old lambs were each infected with 5000 H. contortus and 15000 N. spathiger larvae. Approximately 3 weeks later, doses of test compound A were administered to each group of 2 animals, by the subcutaneous route, one group of 2 animals being left untreated as a control.
(§6) Individual faecal H. contortus egg counts were determined 1 day before and 5- 7 days after treatment, when all the lambs were killed for post-mortem worm counts. The activities, expressed in terms of the percentage reduction in mean worm burden of each worm species compared with the untreated control group, are given below.

[4] = test system: Nippostrongylus brasiliensis; assay: Activity against roundworms in rats, A.1: treatment 6 days after infection (patent infection), post-mortem worm counts; type: in vivo; details: 48 h, oral, 100 mg/kg, treated 6 days after infection, read-out: % Reduction of mean worm load
Protocol: In the Tables of results "s.c." means subcutaneous and the doses are expressed in mg/kg animal body weight. […] A.1. Rats were infected with 100 Nippostrongylus brasiliensis larvae each, by the subcutaneous route. After 6 days, when the infection was patent, the rats were randomised and allotted to groups of 5 animals each, ready for treatment. One group was used for each dose level of the test compound, which was administered by the oral or subcutaneous route, and in each experiment, one group of 10 animals was left untreated as a control. All the rats were killed for post-mortem worm counts 48 hours after treatment. The activities, expressed in terms of the percentage reduction in mean worm load of the treated groups compared with the untreated group, are shown in Table I.

Nematodirus spathiger [5] = assay: B.1 Activity against adult Nematodirus spathiger in lambs; type: in vivo; details: s.c. 10 mg/kg (methanesulphonate salt), adult stage
Protocol: as §4, §5, §6

[6] = test system: Trichostrongylus colubriformis; assay: B.2 Activity against Trichostrongylus colubriformis in 4th larval and adult stages in lambs; type: in vivo; details: oral 4 mg/kg
Protocol: as §1, §2, §3

Cooperia oncophora = assay: C.2 Activity against Cooperia oncophora in mature and immature stages in calves; type: in vivo; details: s.c. 25 mg/kg (methanesulphonate salt)
Protocol: (§7) C.2. Activity against Cooperia oncophora, Ostertagia ostertagi, and Dictyocaulus viviparus in their mature and immature stages in calves. Worm free, 6-7 week old calves were each infected with 15,000 C. oncophora, 15,000 O. ostertagi and 3,000 D. viviparus larvae. Groups of two animals each were treated subcutaneously with test compound A at a dose of 25 mg/kg animal body weight at 7 days or 25 days after infection, one group of two animals being left untreated as a control. All calves were killed approximately 28 days after infection and were examined for residual worm burdens. The percentage reduction in mean worm burden of each worm species compared with the untreated control group is given below in Table V.

Haemonchus contortus [7] = assay: B.2 Activity against Haemonchus contortus in 4th larval and adult stages in lambs; type: in vivo; details: oral 4 mg/kg
Protocol: as §1, §2, §3

Dictyocaulus viviparus = assay: C.2 Activity against Dictyocaulus viviparus in mature and immature stages in calves; type: in vivo; details: s.c. 25 mg/kg (methanesulphonate salt)
Protocol: as §7

Ostertagia ostertagi = assay: C.2 Activity against Ostertagia ostertagi in mature and immature stages in calves; type: in vivo; details: s.c. 25 mg/kg (methanesulphonate salt)
Protocol: as §7

Fasciola hepatica = assay: D. Activity against mature and immature liver flukes in sheep; type: in vivo; details: oral 25 mg/kg in gelatin capsules
Protocol: D. Activity against mature and immature liver flukes in sheep On the first day of the experiment a group of sheep were each infected with 300 metacercariae of liver fluke Fasciola hepatica and on the 56th day they were each infected with a further 300 metacercariae of F. hepatica. On day 70 of the experiment, doses of the test compounds of 25 mg/kg animal body weight were administered orally in gelatin capsules to groups of two animals per compound. One group of two animals was left untreated as controls. On day 98 of the experiment, all the sheep were killed. The number of mature flukes present in the bile ducts and the numbers of immature flukes present in the rest of the liver were counted. The activities, expressed in terms of the percentage reduction in mean fluke burdens compared with the untreated controls, are shown below in Table VI.

Nematodirus spathiger [8] = assay: B.2 Activity against Nematodirus spathiger in 4th larval and adult stages in lambs; type: in vivo; details: oral 4 mg/kg
Protocol: as §1, §2, §3

[9] = sc, s.c. (methanesulphonate salt, aqueous)
[10] = treated at 7 days (4th larval stage)
[11] = treated at 25 days (mature adult worms)
[12] = treated 25 days after infection

Structure (SMILES): COC(=O)N=C1SCC(=O)N1c1ccc(Sc2ccccc2)cc1NC(=O)CN(C)C [Compound A, 3-[2-(2-dimethylaminoacetamido)-4-phenylthiophenyl]-2-methoxycarbonyliminothiazolidin-4-one]
- LD50 at 144 h [1]: ~1000 mg/kg
- inhibition in vivo at 12.5 mg/kg ([2]; oral): 85%
- inhibition in vivo at 50 mg/kg ([2]; oral): 99%
- inhibition in vivo at 12.5 mg/kg [2, 9]: 91%
- inhibition in vivo at 50 mg/kg [2, 9]: 99%
- MIC (Mycosphaerella pinodes): < 2 µg/mL
- Percentage reduction in mean worm burdens, O. circumcincta (Ostertagia circumcincta; [10]): 99%
- Percentage reduction in mean worm burdens, O. circumcincta (Ostertagia circumcincta; [11]): 100%
- Percentage reduction in mean worm burdens, T. axei (Trichostrongylus axei; [10]): 100%
- Percentage reduction in mean worm burdens, T. axei (Trichostrongylus axei; [11]): 100%
- reduction of the mean worm burden of H. contortus (Haemonchus contortus [3]): 100%
- inhibition in vivo at 100 mg/kg [4]: 99%
- reduction of the mean worm burden of N. spathiger (Nematodirus spathiger [5]): 99%
- Percentage reduction in mean worm burdens, T. colubriformis [6, 10]: 100%
- Percentage reduction in mean worm burdens, T. colubriformis [6, 11]: 100%
- % Reduction of mean worm burdens, C. oncophora (Cooperia oncophora; treated 7 days after infection): 100%
- % Reduction of mean worm burdens, C. oncophora (Cooperia oncophora; [12]): 100%
- Percentage reduction in mean worm burdens, H. contortus (Haemonchus contortus [7]; [10]): 100%
- Percentage reduction in mean worm burdens, H. contortus (Haemonchus contortus [7]; [11]): 100%
- % Reduction of mean worm burdens, D. viviparus (Dictyocaulus viviparus; treated 7 days after infection): 83%
- % Reduction of mean worm burdens, D. viviparus (Dictyocaulus viviparus; [12]): 82%
- % Reduction of mean worm burdens, O. ostertagi (Ostertagia ostertagi; treated 7 days after infection): 97%
- % Reduction of mean worm burdens, O. ostertagi (Ostertagia ostertagi; [12]): 100%
- Mean % Reduction, Immature flukes (Fasciola hepatica; immature flukes in rest of liver): 29%
- Mean % Reduction, Mature flukes (Fasciola hepatica; mature flukes in bile ducts): 93%
- Percentage reduction in mean worm burdens, N. spathiger (Nematodirus spathiger [8]; [10]): 95%
- Percentage reduction in mean worm burdens, N. spathiger (Nematodirus spathiger [8]; [11]): 97%
